Experimental data taken from PMC4390552 (Chemical biology & drug design, 2014).

Key:
Type in all cases: cell-based, human
HPASMC = assay: MTT cell viability assay; details: 100 μM CPP (H2O2 0.5 mM), 30-min incubation, OD 570 nm, quadruplicate
[1] = tested on: ERK phosphorylation in HPASMC; assay: Growth factor-stimulated ERK phosphorylation in HPASMC; details: for ERK activation in HPASMC by growth factor: 10 ng/mL PDGF or VEGF in serum-free medium, Western blot, three experiments
[2] = tested on: Akt phosphorylation in HPASMC; assay: Growth factor-stimulated Akt phosphorylation in HPASMC; details: for Akt activation in HPASMC by growth factor: 10 ng/mL PDGF or VEGF in serum-free medium, Western blot, three experiments
[3] = tested on: ERK phosphorylation in HPAEC; assay: Growth factor-stimulated ERK phosphorylation in HPAEC; details: for ERK activation in HPAEC by growth factor: 10 ng/mL PDGF or VEGF in serum-free medium, Western blot, three experiments
[4] = tested on: Akt phosphorylation in HPAEC; assay: Growth factor-stimulated Akt phosphorylation in HPAEC; details: 10 ng/mL PDGF or VEGF in serum-free medium; Western blot, three experiments

OO [Hydrogen peroxide]
Effect on cell viability (MTT) (HPASMC): statistically significant toxicity

EGF: epidermal growth factor (NSDSECPLSHDGYCLHDGVCMYIEALDKYACNCVVGYIGERCQYRDLKWWELR; UniProt P01133 971-1023, looked up)
ERK phosphorylation in HPASMC by EGF ([1]; 1 ng/mL EGF): induced the phosphorylation of both ERK and Akt
Akt phosphorylation in HPASMC by EGF ([2]; 1 ng/mL EGF): induced the phosphorylation of both ERK and Akt

PDGF
ERK activation in HPAEC by growth factor [3]: inactive
ERK activation in HPASMC by growth factor [1]: activated
Concentration at which the dose response of ERK activation maximized ([1]; HPASMC, increasing PDGF in serum-free medium): 1 ng/mL
Akt activation in HPAEC by growth factor [4]: failed to activate Akt
Akt activation in HPASMC by growth factor [2]: activated

VEGF
ERK activation in HPAEC by growth factor [3]: strong ERK phosphorylation
Concentration at which the dose response of ERK activation maximized ([3]; HPAEC, increasing VEGF in serum-free medium): 1 ng/mL
ERK activation in HPASMC by growth factor [1]: no activity
Akt activation in HPAEC by growth factor [4]: failed to activate Akt
Akt activation in HPASMC by growth factor [2]: no activity
